{"source": "patent US6855693B2", "about": "“Peptides for activation and inhibition of δPKC” (The Board of Trustees of the Leland Stanford Junior …, priority 2001, dated 2005)", "key": {"Sprague-Dawley rats": {"tested_on": "Sprague-Dawley rats", "assay": "Rat cerebral ischemia (stroke) model, middle cerebral artery occlusion, infarct area", "assay_type": "in vivo", "details": "Tat-conjugated δV1-1 into carotid artery prior to ischemia and at end of 2 hour occlusion, final blood concentration 1 μM; brains 24 hrs later", "procedure": "In another study performed in support of the invention, the ability of δV1-1 peptide (SEQ ID NO:4) to inhibit damage to the brain as a result of stroke was examined. In this study, described in Example 6, a rat cerebral ischemia model was used. Ischemia was induced using an intraluminal suture to occlude the ostium of the middle cerebral artery. δV1-1 conjugated to Tat peptide (SEQ ID NO:9) or the Tat peptide alone were injected into the carotid artery before and after a two hour occlusion period. The brain from each animal was harvested 24 hours later, stained, and examined.\nAdult male Sprague-Dawley rats weighing between 280-320 g were used. Animals were maintained under isofluorane anesthesia during all surgical procedures. Physiological parameters were monitored and maintained in the normal range. Rectal temperature was also measured. At the completion of the experiment, the animals were euthanized with a barbiturate overdose and prepared for histological analysis.\nIschemia was induced using an occluding intraluminal suture. […]\nAnimals were perfused with heparinized saline and brains removed and sectioned into 2 mm thick slices. […] Areas of infarction (white) were then measured using an image analysis system previously described (Yenari, M. A. et al., 1998; Maier, C. et al., 1998)."}, "pigs": {"tested_on": "pigs", "assay": "Left ventricurogram in pigs, ejection fraction", "assay_type": "in vivo, pig", "procedure": "In another study, left ventricurogram was performed in pigs (n=5) at three time points: (1) before occlusion of left anterior descending artery by balloon catheter (pre ischemia); (2) immediately after reperfusion with 2.5 μM/10 mL of δV1-1 (post ischemia); and (3) before sacrifice five days later (5 days post ischemia), using 6 Fr. of pig-tail catheter. LVG was recorded by 2 views, right anterior oblique and left anterior oblique. Ejection fraction (EF), the percent of blood ejected in a beat, during maximum contraction, of the total maximum present in the left ventricle, was analyzed by the software, Plus Plus (Sanders Data Systems), and the averages of two views were evaluated. Ejection fraction is a measure of how well the heart is functioning, with a higher ejection fraction indicative of a better functioning heart."}, "whole rat hearts": {"tested_on": "whole rat hearts", "assay": "Ex vivo whole hearts, peptide during reperfusion after 20 min global ischemia, functional recovery", "procedure": "Another study was performed to determine if the peptides could be delivered to an intact organ to provide protection after an ischemic insult. In this study, as described in Example 4, the rat heart model described above was used and the hemodynamic parameters were measured during the 20 minutes of global ischemia and the […]. During the reperfusion only, δV1-1 was delivered at a concentration of 500 nM.\nIn a similar study, five pairs of rats were treated as described in Example 4, where the ex vivo hearts were subjected to 20 minutes of ischemia and 30 minutes of reperfusion. During the first 20 minutes of reperfusion, 500 nM of δV1-1 or vehicle control was administered.\nRat hearts were isolated as described in Example 3. The left ventricular pressure and its real-time derivative (dP/dt) were monitored via a latex balloon placed in the ventricular cavity and at a constant heart rate by pacing (3.3 Hz) and at a constant coronary flow (10 ml/min.). The hearts were subjected to 20 minutes of ischemia and 30 minutes of re-perfusion. During the first 20 minutes of reperfusion, 500 nM of δV1-1 or vehicle control was delivered."}, "adult female pigs": {"tested_on": "adult female pigs", "assay": "In vivo pig cardiac ischemia (30 min LAD balloon occlusion), infarct of area at risk after five days", "details": "approximately 20 μg Tat-conjugated peptide during last 10 minutes of 30 minute occlusion; five days later", "procedure": "In another study in support of the invention, the ability of δV1-1 peptide to protect tissue from damage due to an ischemic or hypoxic event was evaluated by administering the peptide in vivo to adult female pigs. As detailed in Example 5, δV1-1 peptide was administered to the pigs during the last 10 minutes of a 30 minute ischemic insult. Five days later, the hearts were analyzed for tissue damage. Adult female pigs, 35-40 kg in weight, were anesthetized and a catheter was introduced through the carotid artery into the heart. Using conventional intervention cardiology techniques, a wire was placed through a catheter and into the left anterior descending artery. A balloon was run over this wire to a site of occlusion where it was then inflated to block blood flow for 30 minutes. […] From this the percent infarct per area at risk for each slice and for the entire heart was determined."}, "[1]": {"details": "500 nM during reperfusion after 20 minutes global ischemia"}}, "note": "No end group written: not given here.", "data": [{"sequence": "SFNSYELGSL (also: conjugated to Antennapedia or Tat carrier; listed as Rattus norvegicus) [δV1-1, tested conjugated to Antennapedia or Tat carrier]", "values": [{"measurement": "brain infarct area", "setting": "Sprague-Dawley rats", "value": "significant reduction"}, {"measurement": "decrease in ejection fraction compared with scrambled peptide control", "setting": "pigs; reperfusion with 2.5 μM/10 mL of δV1-1, post ischemia", "value": "less pronounced decrease"}, {"measurement": "ejection fraction at five days post ischemia", "setting": "pigs; reperfusion with 2.5 μM/10 mL of δV1-1, 5 days post ischemia", "value": "on par with that measured prior to ischemia and significantly higher than the untreated animals"}, {"measurement": "end diastolic pressure (EDP)", "setting": "whole rat hearts; 500 nM during first 20 minutes of reperfusion, 5-30 minutes after reperfusion", "value": "approximately 60 mmHg"}, {"measurement": "coronary perfusion pressure (PP)", "setting": "whole rat hearts; [1]", "value": "reduced"}, {"measurement": "elevated LVP end diastolic pressure", "setting": "whole rat hearts; [1]", "value": "reduced"}, {"measurement": "reduction in creatine phosphokinase release compared with vehicle control", "setting": "whole rat hearts; 500 nM during reperfusion after 20 minutes global ischemia, not shown", "value": "~50", "unit": "%"}, {"measurement": "perfusion pressure (PP) relative to hearts left untreated", "setting": "whole rat hearts; after ischemia and after treatment with 500 nM δV1-1", "value": "about 75%"}, {"measurement": "infarct area within the area at risk (heart slices)", "setting": "adult female pigs", "value": "significantly reduced infarct area"}, {"measurement": "percent of infarct of the area at risk compared with untreated animals", "setting": "adult female pigs", "value": "nearly two-fold lower"}]}]}
